Laboratory results as given in patent US7772260B2, “Imidazo[2,1-b]-1,3,4-thiadiazole sulfonamides” (Aegera Therapeutics Inc., priority 2001, dated 2010).
“Also recorded” adds a separate entry of the source.

Experiments:
[1] = tested on: Erk; assay: Erk activity in PC12 cells and sympathetic neurons; format: cell-based; details: PC12 cells and primary cultures of sympathetic neurons
Source text: Additionally, the Erks protect cultured neurons from a number of insults including neurotrophin withdrawal (Bonni, A., et al., Science, 1999, 286, 1358-1362). […] Compound 1, therefore, protects neurons by activating a subset of NGF-stimulated signaling pathways.

[2] = biological target: CA II (Homo sapiens, UniProt P00918); assay: CA II inhibition; format: biochemical; details: read-out: CAII(50)
Description: CA II inhabition was measured using the protocol described by Pocker, Y.'Stone, J. Biochemistry 1967, 6, 668.

[3] = tested on: SCG neurons; assay: In vitro protection of SCG neurons from vincristine killing; format: cell-based, Sprague Dawley rats; details: Rattus norvegicus, Neuron; vincristine (50 ng/mL), 48 hours, MTS; ±1 μM; read-out: IC50, protection of SCG neurons against Vincristine killing
Source text: Similarly, vincristine and vinblastine are commonly used anti-tumour agents whose mode of action involve tubulin binding.

[4] = tested on: SCG neurons; assay: cells; details: Rattus norvegicus, Neuron, 48 h, read-out: IC50, protection of SCG neurons against cisplatin killing
[5] = tested on: human lung carcinoma cells (H460); assay: Co-treatment of H460 cell line with Taxol and compound 1; format: cell-based; details: Taxol™ (50 nM) + compound at 5, 10, 20 uM; Taxol™ and/or cisplatin
Description: (§1) H460 and OV2008 cells were plated and incubated for 48 hours. Compound 1 and/or compound 1 and Taxol™ were added. Viability was determined after 24 hours, staining with MTT (Promega).
(§2) FIG. 3 illustrates the co-treatment of H460 and OV 2008 cell lines with Taxol™ and compound 1. H460 lung carcinoma and OV2008 ovarian carcinoma cells were treated with Taxol™ (50 nM) and/or Taxol™ (50 nM)+compound 1 (noted as AEG 03482) at levels of 5, 10, and 20 uM.

[6] = tested on: Sprague Dawley rats; format: in vivo
Description: Taxol™ commonly causes dose dependent peripheral neuropathies during cancer treatment. […] All of the Taxol™ treated animals developed peripheral neuropathies, characterized by ‘tip toe walking’. The extent of this neuropathy was analyzed by quantifying the refracted light captured by a video camera as the animals walked over a glass plate.
Adult Sprague Dawley rats were treated with Taxol™ (IP, 9 mg/kg in Cremophor EL and ethanol) twice weekly for 3 weeks (J. Neuro-Oncology (1999) 41: 107-116). Compound was administered I hour prior to Taxol™ treatment (IP, 1, 5 and 10 mg/kg in hydroxypropyl-β-cyclodextrin). Taxol™ treated control animals were treated with saline solution at the same time of Compound treated animals. Non-treated control animals were treated with saline solution as above. Weight gain was measured every second day, starting at Day 1. Gait analysis was measured by quantifying the refracted light captured by a video camera as the animals walked over a glass plate, 2 days after the final Taxol™ treatment (Physiology and Behavior (1994), 55(4): 723-726; Med. Sci. Res. (1988) 16: 901-902). […] H/M wave recovery was analyzed using standard procedures 2 days after the final Taxol™ treatment (Muscle Nerve (1998) 21: 1405-1413; Annals of Neurology (1998) 43 (1): 46-55).
(§3) Male Spraugue Dawley rats were treated with 50% HPDC vehicle (veh/veh), compound I dissolved in 50% HPDC at 1, 5, or 10 mg/kg (veh/1, veh/5, veh/10, respectively), or Taxol™ (9 mg/kg)+compound 1 dissolved in 50% HPDC at 1, 5, and 10 mg/kg (Tax/1, Tax/5, Tax/10) according to the dosing regime described in Example 160. Weight measurements were made ever other day.
Two days after the completion of drug treatments animal walking gait was analyzed according to a) total imprint area, and b) total number of contact points.
FIG. 6 illustrates the effect of Compound 1 on H-reflex amplitude, a measurement of H/M wave disturbance induced by Taxol™. Two days after the completion of drug treatments, the dorsal root ganglia and attached nerves were dissected bilaterally from L4 and L5 and their H/M wave conductance measured.

[7] = Acute toxicity studies with compound 1 alone; format: in vivo; details: compound alone, 1, 5, and 10 mg/kg for 3 weeks
Description: as §3

[8] = tested on: human ovarian carcinoma cells (OV2008); assay: Co-treatment of OV2008 cell line with Taxol and compound 1; format: cell-based; details: Taxol™ (50 nM) + compound at 5, 10, 20 uM; Taxol™ and/or cisplatin
Description: as §1, §2

[9] = tested on: SCG neurons; assay: cells; format: cell-based, Sprague Dawley rats; details: for IC50: Rattus norvegicus, Neuron
[10] = tested on: SCG neurons; assay: Protection of SCG neurons from anti-NGF killing; format: cell-based, Sprague Dawley rats; details: Rattus norvegicus, Neuron; anti-NGF antibody, serum and NGF free 48 hours, Alamar Blue; +/−1 uM; read-out: IC(50), rescue from anti-NGF killing of SCG neurons
Description: Neurotrophins are critical to the growth, development, and survival of small fiber neurons of the PNS. SCG neurons are neurons of the PNS that undergo apoptosis upon NGF withdrawal. In a typical experiment SCG neurons are cultured in the presence of NGF, which induces survival and neurite out-growth. After 5 days the NGF is removed by either the addition of anti-NGF polyclonal antibody (Sigma) or by repeated washings (4 times) with NGF free media, resulting in the apoptosis of up to 90% of the neurons after 48 hours, as measured by MTS staining.
After 4 days the cells were treated with anti-NGF antibody (Sigma). At this time compound was added and the cells were maintained serum and NGF free for 48 hours, at which time viability was assessed using Alamar Blue (Medicorp) staining.

[11] = 5 mg/kg with Taxol™ (9 mg/kg), bi-weekly

For `NS(=O)(=O)c1nn2cc(-c3ccccc3)nc2s1` [Compound 1, 6-Phenylimidazo[2,1-b]-1,3,4-thiadiazole-2-sulfonamide], the Erk activity [1] was “dramatic increase”, the IC50 [2] was 0.25 µM and the IC50 [3] was 10 µM. For the same compound, the IC50 [4] was 5 µM, the “protection of H460 cells from Taxol™ induced apoptosis” value [5] was “no protection; also recorded: did not protect” and the “loss in foot pad contact” value [6, 11] was 23%. The “weight gain as compared to control” value [6, 11] was “normal weight gain”, the “H/M wave disturbance induced by Taxol™ (H-reflex amplitude)” value ([6]; two days after completion of drug treatments) was “caused a reversal in H/M wave disturbance” and the “Taxol™ induced gait disturbance” value ([6]; two days after completion of drug treatments, total imprint area, number of contact points) was “prevented Taxol™ induced gait disturbance”. For the same compound, the “acute signs of toxicity” value [7] was “No acute signs of toxicity”, the “protection of OV2008 cells from Taxol™ induced apoptosis” value [8] was “no protection; also recorded: did not protect” and the “protection against Taxol™ induced killing” value ([9]; 10 uM, Taxol™ 50 ng/mL, MTS) was 100%. It also gave an IC50 ([9]; Taxol™ (50 ng/mL), viability 48 hours later, MTS, read-out: IC(50), protection of SCG neurons from Taxol killing) of 7 µM, an IC50 ([9]; read-out: IC(50) against Taxol killing of SCGs) of 7 µM and an IC50 [10] of 22 µM.
